Literature values in US20060264455A1 (priority 2005, published 2006).

Tested on: 6 Hz limbic seizures (corneal stimulation)
Conditions: established antiepileptic drugs; cited from earlier work

Row | SMILES | Efficacy in the 6 Hz psychomotor seizure model
1 | CC1(C)O[C@@H]2[C@@H](CO[C@@]3(COS(N)(=O)=O)OC(C)(C)O[C@@H]23)O1 [topiramate] | limited efficacy
2 | NC(=O)N1c2ccccc2C=Cc2ccccc21 [carbamazepine] | limited efficacy
3 | O=C1NC(=O)C(c2ccccc2)(c2ccccc2)N1 [phenytoin] | limited efficacy
4 | Nc1nnc(-c2cccc(Cl)c2Cl)c(N)n1 [lamotrigine] | limited efficacy
